Results taken from patent US6379655B1, “Photoprotective/cosmetic compositions comprising aminoamidine sunscreens” (Societe l'Oreal S.A., priority 1999, dated 2002).

What was measured:
[1] = UV absorption (sunscreening properties) in ethanol; format: physicochemical
From the text: This compound had the following sunscreening properties:
spectral domain where ε is greater than 10,000: 297 to 377 nm.

[2] = photostability protocol for cosmetic UV filters; format: physicochemical; details: protocol of Inter. J. Cosm. Sci., 1996, 18, 167-177
From the text: Loss of 5% after subjecting to the photostability protocol (according to BERST G., GONZPNBACH H., CHRIST R., MARTIN R., DEFLANDRE A., MASCOTTO R. E., JOLLEY J. D. R., LOWELL W., PELZER R., STIEHM T., Inter. J. Cosm.Sci., 1996, 18, 167-177. Proposed protocol for determination of photostability Part I: cosmetic UV filters).

SMILES	E1% [1]	λmax [1] [nm]	Loss after subjecting to the photostability protocol [2] [%]
N/C(=N\N=C\c1ccccc1O)c1cnccn1 [Compound 52, N′-[(E)-2-hydroxyphenylmethylidene]pyrazinecarbohydrazonamide]	1010	354.2	–
N/C(=N\N=C\c1ccoc1)c1cnccn1 [Compound 70, N′-[(E)-3-furylmethylidene]-2-pyrazinecarbohydrazonamide]	832	335	–
N/C(=N\N=C\c1cccnc1)c1cnccn1 [Compound 76, N′-[(E)-3-pyridinylmethylidene]-2-pyrazinecarbohydrazonamide]	1016	341	5
